What is called LD50 is the dose expected to kill half of the subjects tested. A higher LD50 goes with a less toxic substance. A word on the ED50: it is the dose at which the effect has come halfway, by size or by number of responders. Broadly, the IC50 is the concentration needed to halve the response being measured.

Data on two molecules can be found in patent publication US4616010A, “Imidazodiazepine derivatives” (Hoffmann-La Roche Inc., priority 1985, dated 1986).

Data set [1] can be described thus: acute toxicity, single oral administration to mice. Particulars: mouse, in vivo. An excerpt:
The results obtained with representative members of the class of compounds defined by formula I in the experiments described previously are compiled in the following Table. Moreover, the Table contains data concerning the acute toxicity of some of these compounds (LD50 in mg/kg in the case of single oral administration to mice).

Data set [2] has as its system spasmodic seizures caused by pentetrazole. Kind of data set: antipentetrazole test (anticonvulsant activity). The conditions noted are these: Rattus norvegicus, po; female rats 60-80 g; compound orally 30 min before pentetrazole 120 mg/kg i.p.; dose protecting 50%, Probit method. The class given is in vivo. Here is the method:
The central properties of the compounds of formula I in accordance with the invention can be determined, for example, in the antipentetrazole test described hereinafter, which is generally recognized for recording anticonvulsant properties.
In this animal experiment, the compound under investigation is administered orally to female rats weighing 60-80 g and 30 minutes later there are administered i.p. 120 mg/kg of pentetrazole, which causes emprosthotonus and tonic stretchings of the fore and/or hind limbs in unprotected experimental animals 1-4 minutes after the injection. Ten experimental animals are used per dosage of test substance. After counting the protected experimental animals, the ED50 is determined according to the Probit method. The ED50 is that dosage which protects 50% of the experimental animals from the spasmodic seizures caused by pentetrazole.

Data set [3] has as its target central benzodiazepine receptors. Kind of data set: inhibition of the binding of tritiated diazepam at the specific benzodiazepine receptors in the cerebral cortex. An excerpt:
The affinity of compounds of formula I to the central benzodiazepine receptors has been determined according to the method described in Life Science 20, 2101-2110 (1977) and Science 198, 849-851 (1977). According to this method, the inhibition of the binding of tritiated diazepam at the specific benzodiazepine receptors in the cerebral cortex by the respective test substances is ascertained. The IC50 ("50% inhibiting concentration") is that concentration of the respective test substance which brings about a 50 percent inhibition of the specific binding of the tritiated diazepam at the specific benzodiazepine receptors in the cerebral cortex.

Regarding `O=C1c2c(Cl)cccc2-n2cnc(-c3cccc(Cl)c3)c2[C@@H]2CCCN12` [A], the LD50 in data set [1] lay within 2500 to 5000 mg/kg. For the same molecule, it took a dose of 2.1 mg/kg to reach the 50% effect level in data set [2] (ED50). The molecule also came in with an IC50 in data set [3] of 4.2 nM.

In data set [1], `O=C1c2c(Cl)cccc2-n2cnc(-c3cccc(C(F)(F)F)c3)c2[C@@H]2CCCN12` [B, (S)-8-chloro-11,12,13,13a-tetrahydro-1-(α,α,α-trifluoro-m-tolyl)-9H-imidazo[1,5-a]pyrrolo[2,1-c][1,4]benzodiazepin-9-one] had an LD50 of 2500 to 5000 mg/kg. This molecule returned an ED50 in data set [2] of 4 mg/kg. In data set [3], this molecule gave an IC50 of 40 nM.
